Laboratory results from patent publication US12168664B2, “Triazolopyrimidines, their preparation and use” (THE TRUSTEES OF COLUMBIA UNIVERSITY IN THE CITY OF NEW YORK, priority 2018, dated 2024).
“And” between values parts separate entries of the source, which are not always exact repeats. Equal values may be shown once.

Assays:
[1] = molecular target: RBP4-TTR interaction (Homo sapiens (Human), UniProt P02753); assay: HTRF (TR-FRET) assay for antagonists of retinol-induced RBP4-TTR interaction; format: biochemical; settings: in the presence of 1 μM retinol
Description: TR-FRET Assay for Retinol-Induced RBP4-TTR Interaction
Binding of a desired RBP4 antagonist displaces retinol and induces hindrance for RBP4-TTR interaction resulting in the decreased FRET signal (FIG. 7). Bacterially expressed MBP-RBP4 and untagged TTR were used in this assay. For the use in the TR-FRET assay, the maltose binding protein (MBP)-tagged human RBP4 fragment (amino acids 19-201) was expressed in the Gold(DE3)pLysS E. coli strain (Stratagene) using the pMAL-c4x vector. Following cell lysis, recombinant RBP4 was purified from the soluble fraction using the ACTA FPLC system (GE Healthcare) equipped with the 5-ml the MBP Trap HP column. Human untagged TTR was purchased from Calbiochem. Untagged TTR was labeled directly with Eu^3+ Cryptate-NHS using the HTRF Cryptate Labeling kit from CisBio following the manufacturer's recommendations. HTRF assay was performed in white low volume 384 well plates (Greiner-Bio) in a final assay volume of 16 μl per well. […] Titration of test compounds in this assay was conducted in the presence of 1 μM retinol. […] TR-FRET signal was measured in the SpectraMax M5e Multimode Plate Reader (Molecular Device). […] The TR-FRET signal was expressed as the ratio of fluorescence intensity: Flu665/Flu620×10,000.
(§1) The compounds listed below were tested in two in vitro assays, RBP4 binding (SPA) and retinol-dependent RBP4-TTR interaction (HTRF) (Table 1).

[2] = molecular target: human RBP4 (Homo sapiens (Human), UniProt P02753); assay: SPA binding assay for RBP4 (scintillation proximity, 3H-retinol displacement); settings: 10 nM 3H-retinol, 50 nM biotinylated RBP4
Description: Scintillation Proximity RBP4 Binding Assay
Untagged human RBP4 purified from the urine of tubular proteinuria patients was purchased from Fitzgerald Industries International. It was biotinylated using the EZ-Link Sulfo-NHS-LC-Biotinylation kit from Pierce following the manufacturer's recommendations. […] Nonspecific binding was determined in the presence of 20 μM of unlabeled retinol. The reaction mix was assembled in the dark under dim red light. The plates were sealed with clear tape (TopSeal-A: 96-well microplate, PerkinElmer), wrapped in the aluminum foil, and allowed to equilibrate 6 hours at room temperature followed by overnight incubation at +4° C. Radiocounts were measured using a TopCount NXT counter (Packard Instrument Company).
as §1

[3] = molecular target: PPARγ (Homo sapiens (Human), UniProt P37231); assay: PPARγ agonist assay (HTRF, PPARγ-NCOR interaction); format: biochemical; settings: read-out: PPAR γ assay (HTRF) for agonists of this nuclear receptor - IC50
Description: Significant safety issues are associated with the clinical use of PPARγ agonists (increased risk of death, myocardial infarction, stroke, congestive heart failure, hepatotoxicity, peripheral edema, weight gain and carcinogenicity^1-4). We wanted to characterize the compounds we identified in a pilot screen as potential PPARγ agonists. The PPARγ assay is based on agonist-sensitive interaction of the GST-tagged ligand-binding domain (LRD) of the nuclear receptor PPARγ with the biotinylated corepressor NCOR peptide (FIG. 8).
Assay reactions are performed in a final volume of 16 ul.
In well of the 384-well assay plate, mix 6 ul of PPARγ solution, 4 ul of NCOR2 solution and 4 μl of Rosi solution. Test compounds diluted from DMSO stocks to 4× assay concentration in 1×HTRF, 100 mM KF buffer may be dispensed to well instead of Rosi. Negative control wells contained DMSO solvent alone; positive control well contained […]. […] Two μl of detection mix was added per well. […] The plate was incubated for 16 hrs at 4° C.
HTRF signal was measured in the SpectraMax M5e Multimode Plate Reader (Molecular Device). Fluorescence was excited at 337 nm. […] The signal was expressed as the ratio of fluorescence intensity: Flu668/Flu620×10,000. […]

[4] = molecular target: CYP2D6 (Homo sapiens (Human), UniProt P10635); assay: CYP inhibition, fluorescent, CYP2D6; format: in vitro ADME
Description: (§2) The compounds listed below were tested in various metabolic stability and CYP inhibition assays.

[5] = molecular target: CYP2C9 (Homo sapiens (Human), UniProt P11712); assay: CYP inhibition, fluorescent, CYP2C9; format: in vitro ADME
Description: as §2

[6] = molecular target: CYP2C19 (Homo sapiens (Human), UniProt P33261); assay: CYP inhibition, fluorescent, CYP2C19; format: in vitro ADME
Description: as §2

[7] = Metabolic stability in liver microsomes (HLM); format: in vitro ADME, human
Description: as §2

[8] = molecular target: CYP3A4 (Homo sapiens (Human), UniProt P08684); assay: CYP inhibition, fluorescent, CYP3A4; format: in vitro ADME
Description: as §2

[9] = molecular target: serum RBP4 (Mus musculus (Mouse), UniProt Q00724); assay: Serum RBP4 reduction in Balb/c mice after a single oral administration; format: in vivo; settings: at 6 hr timepoint
Description: Pharmacodynamic Studies of 7a and 7p in Balb/c Mice Following a Single Oral Administration
Animal protocols were approved by the Institutional Animal Care and Use Committee of Columbia University and complied with guidelines set forth by The Association for Research in Vision and Ophthalmology. Compounds were prepared as a suspension in 0.9% NaCl, 2% Tween 80 for oral administration. Compounds were administered to Balb/c mice in a volume of 100 μL through oral gavage. The doses used were 15 mg/kg, 25 mg/kg and 35 mg/kg for 7a while two doses, 25 mg/kg and 35 mg/kg, were tested for DENG-31(FFB-0000082). Blood samples were collected at pre-dose and 1 hr, 2 hr, 4 hr, 6 hr, 8 hr, and 24 hr timepoints. Whole blood was drawn into a centrifuge tube and was let clot at room temperature for 30 min followed by centrifugation at 2,000×g for 15 minutes at +4° C. to collect serum. Serum RBP4 was measured using the RBP4 (mouse/rat) dual ELISA kit (AdipoGen) following the manufacturer's instructions.
In order to attain this objective, the effect of oral compound administration was studied in mice. Three doses of compound 7a and two doses of 7p were tested in Balb/c mice assay for reduction of serum RBP4.

Sequence of CYP2C9 (P11712 whole entry, species assumed): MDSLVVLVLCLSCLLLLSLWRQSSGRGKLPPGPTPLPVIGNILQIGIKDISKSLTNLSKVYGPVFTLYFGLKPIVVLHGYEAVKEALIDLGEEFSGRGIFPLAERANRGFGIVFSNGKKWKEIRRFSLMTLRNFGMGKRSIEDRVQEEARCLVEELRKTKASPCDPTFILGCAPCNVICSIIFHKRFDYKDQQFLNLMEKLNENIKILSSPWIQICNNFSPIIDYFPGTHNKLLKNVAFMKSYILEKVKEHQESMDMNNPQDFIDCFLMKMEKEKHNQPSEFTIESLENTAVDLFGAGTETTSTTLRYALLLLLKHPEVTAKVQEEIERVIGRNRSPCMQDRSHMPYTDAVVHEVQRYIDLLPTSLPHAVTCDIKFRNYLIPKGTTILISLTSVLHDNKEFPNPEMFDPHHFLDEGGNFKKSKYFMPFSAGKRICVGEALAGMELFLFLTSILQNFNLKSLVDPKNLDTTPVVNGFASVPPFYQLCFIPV
Sequence of CYP2D6 (P10635 whole entry, species assumed): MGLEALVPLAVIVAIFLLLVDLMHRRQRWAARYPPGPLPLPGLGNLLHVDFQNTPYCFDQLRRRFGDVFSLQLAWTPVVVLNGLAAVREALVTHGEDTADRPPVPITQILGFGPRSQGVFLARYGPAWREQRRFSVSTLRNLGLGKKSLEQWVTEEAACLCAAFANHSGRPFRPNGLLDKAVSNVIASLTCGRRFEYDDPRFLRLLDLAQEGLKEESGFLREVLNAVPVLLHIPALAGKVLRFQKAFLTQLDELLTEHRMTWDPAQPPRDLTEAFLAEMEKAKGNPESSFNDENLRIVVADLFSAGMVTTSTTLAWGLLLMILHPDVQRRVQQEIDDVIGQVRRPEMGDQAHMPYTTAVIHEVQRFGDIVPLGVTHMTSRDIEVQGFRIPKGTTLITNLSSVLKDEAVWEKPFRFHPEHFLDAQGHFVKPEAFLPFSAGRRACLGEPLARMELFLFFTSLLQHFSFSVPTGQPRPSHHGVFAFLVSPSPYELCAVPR
Sequence of CYP2C19 (P33261 whole entry, species assumed): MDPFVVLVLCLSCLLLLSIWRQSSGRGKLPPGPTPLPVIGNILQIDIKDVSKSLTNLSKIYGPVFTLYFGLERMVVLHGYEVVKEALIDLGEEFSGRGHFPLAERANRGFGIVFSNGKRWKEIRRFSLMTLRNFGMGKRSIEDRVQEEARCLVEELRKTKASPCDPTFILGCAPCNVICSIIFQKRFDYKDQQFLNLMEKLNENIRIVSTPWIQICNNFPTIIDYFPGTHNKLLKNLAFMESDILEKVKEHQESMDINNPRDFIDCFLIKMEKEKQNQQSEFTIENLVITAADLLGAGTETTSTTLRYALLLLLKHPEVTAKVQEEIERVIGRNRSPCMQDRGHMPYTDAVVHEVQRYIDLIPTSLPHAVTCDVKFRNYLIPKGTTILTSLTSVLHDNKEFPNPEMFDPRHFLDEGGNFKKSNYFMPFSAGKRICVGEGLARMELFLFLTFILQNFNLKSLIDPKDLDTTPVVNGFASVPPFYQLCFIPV
Sequence of PPARγ (P37231 204-505): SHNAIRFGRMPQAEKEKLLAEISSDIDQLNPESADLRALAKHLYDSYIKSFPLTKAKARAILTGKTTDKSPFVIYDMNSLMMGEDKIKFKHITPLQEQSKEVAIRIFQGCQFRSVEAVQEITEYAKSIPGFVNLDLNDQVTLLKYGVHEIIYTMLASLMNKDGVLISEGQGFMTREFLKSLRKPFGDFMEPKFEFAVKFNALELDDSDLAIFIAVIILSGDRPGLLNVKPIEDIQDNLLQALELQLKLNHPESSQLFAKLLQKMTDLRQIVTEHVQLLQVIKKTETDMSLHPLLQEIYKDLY
Sequence of CYP3A4 (P08684 whole entry, species assumed): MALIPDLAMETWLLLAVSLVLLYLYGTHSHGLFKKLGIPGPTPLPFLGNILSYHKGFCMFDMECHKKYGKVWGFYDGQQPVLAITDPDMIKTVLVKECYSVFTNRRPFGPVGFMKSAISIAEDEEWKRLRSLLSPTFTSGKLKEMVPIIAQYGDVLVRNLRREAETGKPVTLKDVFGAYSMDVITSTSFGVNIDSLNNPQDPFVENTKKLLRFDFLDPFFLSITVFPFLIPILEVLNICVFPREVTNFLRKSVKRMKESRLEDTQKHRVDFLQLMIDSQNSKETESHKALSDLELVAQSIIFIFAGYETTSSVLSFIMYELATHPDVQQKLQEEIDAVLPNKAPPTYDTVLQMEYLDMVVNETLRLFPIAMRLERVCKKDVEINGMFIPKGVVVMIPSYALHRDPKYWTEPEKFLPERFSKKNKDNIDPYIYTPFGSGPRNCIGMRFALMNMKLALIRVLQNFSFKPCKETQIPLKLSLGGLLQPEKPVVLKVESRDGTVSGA

SMILES | IC50 [1] | IC50 [2] [nM] | IC50 [3] [nM] | further results
O=C(c1nnc2ncccn12)N1C[C@H]2C[C@@H](c3ccccc3C(F)(F)F)C[C@H]2C1 [Compound 7b] | 661 nM | 46 | > 100000 | 
O=C(c1nc2ncc(Br)cn2n1)N1C[C@H]2C[C@@H](c3ccccc3C(F)(F)F)C[C@H]2C1 [Compound 7c] | 949 nM | 39 | > 100000 | 
Cc1ccnc2nc(C(=O)N3C[C@H]4C[C@@H](c5ccccc5C(F)(F)F)C[C@H]4C3)nn12 [Compound 7d] | 306 nM and 1850 nM and 2800 nM | 122 | > 100000 | 
Cc1cnc2nc(C(=O)N3C[C@H]4C[C@@H](c5ccccc5C(F)(F)F)C[C@H]4C3)nn2c1 [Compound 7e] |  |  | > 100000 | IC50 [4]: 12400 nM and 36000 nM; IC50 [5]: 16000 nM and 50000 nM; IC50 [6]: > 100000 nM; Metabolic stability in liver microsomes: % Remaining at 30 min, HLM [7]: 85% and 66%
Cc1cc(C)n2nc(C(=O)N3C[C@H]4C[C@@H](c5ccccc5C(F)(F)F)C[C@H]4C3)nc2n1 [Compound 7f] | 4580 nM and 7440 nM | 108 | > 100000 | 
Cc1ccn2c(C(=O)N3C[C@H]4C[C@@H](c5ccccc5C(F)(F)F)C[C@H]4C3)nnc2n1 [Compound 7g] | 415 nM | 45 | > 100000 | IC50 [4]: > 100000 nM; IC50 [6]: > 100000 nM; Metabolic stability in liver microsomes: % Remaining at 30 min, HLM [7]: 61%; IC50 [8]: > 100000 nM
O=C(c1nc2ncccn2n1)N1C[C@H]2C[C@@H](c3cc(F)ccc3C(F)(F)F)C[C@H]2C1 [Compound 7h] | 410 nM | 38 | > 100000 | 
O=C(c1nc2ncc(CCO)cn2n1)N1C[C@H]2C[C@@H](c3cc(F)ccc3C(F)(F)F)C[C@H]2C1 [Compound 7i] | 494 nM |  |  | 
O=C(c1nc2ncc(CCO)cn2n1)N1C[C@H]2C[C@@H](c3ccccc3C(F)(F)F)C[C@H]2C1 [Compound 7j] | 200 nM | 16 | > 100000 | IC50 [4]: > 100000 nM; IC50 [5]: 60000 nM; IC50 [6]: > 100000 nM; Metabolic stability in liver microsomes: % Remaining at 30 min, HLM [7]: 73%; IC50 [8]: > 100000 nM
COCCc1cnc2nc(C(=O)N3C[C@H]4C[C@@H](c5ccccc5C(F)(F)F)C[C@H]4C3)nn2c1 [Compound 7k] | 1010 nM | 67 | > 100000 | 
CC(=O)OCCc1cnc2nc(C(=O)N3C[C@H]4C[C@@H](c5ccccc5C(F)(F)F)C[C@H]4C3)nn2c1 [Compound 7l] | 230 nM | 23 | > 100000 | 
NCCc1cnc2nc(C(=O)N3C[C@H]4C[C@@H](c5ccccc5C(F)(F)F)C[C@H]4C3)nn2c1 [Compound 7m] | 1470 nM | 247 | > 100000 | 
O=C(c1nc2ncc(CCCl)cn2n1)N1C[C@H]2C[C@@H](c3ccccc3C(F)(F)F)C[C@H]2C1 [Compound 7n] | 628 nM | 67 | > 100000 | 
O=C(c1nc2ncc(CCO)cn2n1)N1C[C@@H]2CN(c3ccccc3C(F)(F)F)C[C@@H]2C1 [Compound 7o] | 257 nM | 22 | > 100000 | IC50 [4]: > 20000 nM; IC50 [6]: > 20000 nM; IC50 [8]: > 20000 nM
O=C(c1nc2ncc(CCO)cn2n1)N1C[C@@H]2CN(c3cc(F)ccc3C(F)(F)F)C[C@@H]2C1 [Compound 7p] | 150 nM | 37 | > 100000 | IC50 [4]: > 20000 nM; maximum serum RBP4 reduction ([9]; single 25 mg/kg PO): 89%; maximum serum RBP4 reduction ([9]; single 35 mg/kg PO): 87%; IC50 [5]: > 20000 nM; IC50 [6]: > 20000 nM; Metabolic stability in liver microsomes: % Remaining at 30 min, HLM [7]: 73%; IC50 [8]: > 20000 nM
O=C(c1nc2ncc(CCO)cn2n1)N1C[C@@H]2CN(c3cc(F)ccc3C(F)(F)F)C[C@@H]2C1 [Compound 7q] | 491 nM | 31 | > 100000 | Metabolic stability in liver microsomes: % Remaining at 30 min, HLM [7]: 26%

Continued, in another order:

IC50 [1] | IC50 [2] [nM] | IC50 [3] [nM] | SMILES | further results
> 30000 nM |  |  | O=C(c1c[nH]c2cnccc12)N1C[C@H]2C[C@@H](c3ccccc3C(F)(F)F)C[C@H]2C1 [Compound 8a] | 
> 30000 nM |  |  | O=C(c1c[nH]c2ccncc12)N1C[C@H]2C[C@@H](c3ccccc3C(F)(F)F)C[C@H]2C1 [Compound 8b] | 
 | 27.3 |  | O=C(c1nc2ncccn2n1)N1C[C@H]2C[C@@H](c3ccccc3C(F)(F)C(F)(F)F)C[C@H]2C1 [Compound 9a] | 
1130 nM | 82.9 |  | Cc1ccn2c(C(=O)N3C[C@H]4C[C@@H](c5ccccc5OC(F)(F)F)C[C@H]4C3)nnc2n1 [Compound 9c] | 
1450 nM | 88.1 |  | O=C(c1cnc2ncccn12)N1C[C@H]2C[C@@H](c3ccccc3OC(F)(F)F)C[C@H]2C1 [Compound 9d] | 
450 nM | 57.1 |  | Cc1cnc2nc(C(=O)N3C[C@H]4C[C@@H](c5ccccc5OC(F)(F)F)C[C@H]4C3)nn2c1 [Compound 9f] | 
741 nM | 78.4 |  | O=C(c1cn2cccnc2n1)N1C[C@H]2C[C@@H](c3ccccc3OC(F)(F)F)C[C@H]2C1 [Compound 9g] | 
2480 nM | 104 |  | Cc1ccn2cc(C(=O)N3C[C@H]4C[C@@H](c5ccccc5OC(F)(F)F)C[C@H]4C3)nc2c1 [Compound 9h] | 
20400 nM | 443 |  | O=C(c1nc2nc(C(F)(F)F)ccn2n1)N1C[C@H]2C[C@@H](c3ccccc3OC(F)(F)F)C[C@H]2C1 [Compound 9i] | 
551 nM and 473 nM |  |  | O=C(c1nc2ncccn2n1)N1C[C@H]2C[C@@H](c3ccccc3OC(F)(F)F)C[C@H]2C1 [Compound 9j] | 
 | 14800 |  | Cc1ccccc1[C@@H]1C[C@@H]2CN(C(=O)c3nc4ncccn4n3)C[C@@H]2C1 [Compound 10a] | 
40.8 nM |  |  | CC(C)c1ccccc1[C@@H]1C[C@@H]2CN(C(=O)c3nc4ncccn4n3)C[C@@H]2C1 [Compound 10c] | 
300 nM |  |  | O=C(c1nc2ncccn2n1)N1C[C@H]2C[C@@H](c3ccccc3-c3ccccc3)C[C@H]2C1 [Compound 10d] | 
